Patent US12091402B2 (Avilar Therapeutics, Inc., priority 2021, dated 2024)
pEC50, pKd: −log10 of the molar value. Where two headings read alike, the source gives them in different places.

Tests used:
[1] = target: T1, ASGPR receptor on the cell surface (HepG2 cells) (Homo sapiens, UniProt P07306); test: Ternary complex formation assay (flow cytometry, HepG2); assay type: cell-based; conditions: for EC50: Ternary Complex EC50 (nM)
T1 construct: host or cells: HepG2
T1 sequence (P07306 1-291): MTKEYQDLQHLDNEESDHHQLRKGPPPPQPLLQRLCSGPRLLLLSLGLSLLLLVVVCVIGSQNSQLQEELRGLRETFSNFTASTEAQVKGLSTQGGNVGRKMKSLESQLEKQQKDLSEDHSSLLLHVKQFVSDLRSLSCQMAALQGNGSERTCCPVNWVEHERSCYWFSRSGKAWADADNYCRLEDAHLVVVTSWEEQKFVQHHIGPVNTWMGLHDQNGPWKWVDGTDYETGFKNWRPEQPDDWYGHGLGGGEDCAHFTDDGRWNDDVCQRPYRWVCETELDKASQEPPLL
T1 sequence (P07307 1-311 partner): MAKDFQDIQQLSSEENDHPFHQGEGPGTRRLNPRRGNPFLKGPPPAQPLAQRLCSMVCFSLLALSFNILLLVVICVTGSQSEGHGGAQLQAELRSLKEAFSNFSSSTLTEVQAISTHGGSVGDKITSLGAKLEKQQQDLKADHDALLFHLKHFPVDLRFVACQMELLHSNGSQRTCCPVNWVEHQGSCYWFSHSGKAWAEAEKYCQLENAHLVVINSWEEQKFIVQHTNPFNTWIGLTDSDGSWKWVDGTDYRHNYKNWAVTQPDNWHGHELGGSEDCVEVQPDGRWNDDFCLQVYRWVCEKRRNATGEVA
Summary of the method: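 HepG2 cells (1×10^5/well) incubated 1 h at 4 °C with 100 nM AF488-labeled anti-human IgG plus serial IgG-based degrader, or 100 nM AF488 rabbit anti-DNP plus serial DNP-based degrader. After washing, cell-associated AF488 MFI read by flow cytometry; peak MFI marks optimal degrader concentration for ternary complex.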

[2] = tested on: HepG2 cells; test: Cellular uptake assay of AF488-labeled antibody (HepG2); assay type: cell-based; conditions: for pEC50: HepG2 cells; for EC50: Homo sapiens, HepG2, 6 h, read-out: Uptake Assay EC50 (nM)
Summary of the method: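 HepG2 cells given 100 nM AF488-labeled human IgG or DNP antibody plus serial dilutions of matching degrader (0.1% DMSO final), 6 h at 37° C. Methanol-fixed, DAPI-stained and imaged by high-content analysis. Value is the fraction of AF488-positive cells over total DAPI-counted cells.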

[3] = target: T2, ASGPR (Homo sapiens, UniProt P07306); test: Affinity to ASGPR by surface plasmon resonance (SPR)
T2 sequence (P07306 1-291): T1 sequence (P07306 1-291)

[4] = HepG2 cells, 100 nM AF488-labeled antibody, 1 hour at 4° C., class symbols
[5] = 100 nM AF488-labeled antibody, 37° C. for 6 hours, class symbols, read-out: Uptake Assay EC50

Compound	pEC50 [1]	pEC50 ([2]; read-out: Uptake EC50)	pKd [3]	EC50 [1, 4] [nM]	EC50 [2] [nM]	pEC50 [2, 5]	further results
CC(C)C[C@@H]1NC(=O)[C@H](Cc2c[nH]cn2)NC(=O)[C@H](Cc2c[nH]c3ccccc23)NC(=O)[C@H](C)NC(=O)[C@@H](NC(=O)[C@H](CC(=O)O)NC(=O)CCOCCOCCOCCOCCNC(=O)CCCc2cn(CCCCCC(=O)NC(COCCC(=O)NCCOCCOCCOCCOC[C@H]3OC[C@H](Nc4nccc(C(F)(F)F)n4)[C@@H](O)[C@H]3O)(COCCC(=O)NCCOCCOCCOCCOC[C@H]3OC[C@H](Nc4nccc(C(F)(F)F)n4)[C@@H](O)[C@H]3O)COCCC(=O)NCCOCCOCCOCCOC[C@H]3OC[C@H](Nc4nccc(C(F)(F)F)n4)[C@@H](O)[C@H]3O)nn2)CSSC[C@@H](C(=O)N[C@H](C(N)=O)[C@@H](C)O)NC(=O)[C@H](Cc2c[nH]c3ccccc23)NC(=O)[C@H](C(C)C)NC(=O)[C@H](CC(C)C)NC(=O)[C@H](CCC(=O)O)NC(=O)CNC1=O [Compound 90]	> 7.00	> 7.00	> 7.00	–	–	–	–
O=[N+]([O-])c1ccc(NCCOCCOCCOCCOC[C@@]23CO[C@@H](O2)[C@H](Nc2nc(Cl)ns2)[C@@H](O)[C@H]3O)c([N+](=O)[O-])c1 [Compound 27, (1S,2R,3R,4R,5S)-4-((3-chloro-1,2,4-thiadiazol-5-yl)amino)-1-(13-((2,4-dinitrophenyl)amino)-2,5,8,11-tetraoxatridecyl)-6,8-dioxabicyclo[3.2.1]octane-2,3-diol]	–	–	> 7.00	< 100	< 100	–	–
CC(C)C[C@@H]1NC(=O)[C@H](Cc2c[nH]cn2)NC(=O)[C@H](Cc2c[nH]c3ccccc23)NC(=O)[C@H](C)NC(=O)[C@@H]2CSSC[C@H](NC(=O)[C@H](Cc3c[nH]c4ccccc34)NC(=O)[C@H](C(C)C)NC(=O)[C@H](CC(C)C)NC(=O)[C@H](CCC(=O)O)NC(=O)CNC1=O)C(=O)N[C@@H]([C@@H](C)O)C(=O)N1CCC[C@@H]1C(=O)N1C[C@@H](NC(=O)COCCOCCOCC(=O)NC(COCCC(=O)NCCOCCOCCOCCOC[C@H]3OC[C@H](Nc4nccc(C(F)(F)F)n4)[C@@H](O)[C@H]3O)COCCC(=O)NCCOCCOCCOCCOC[C@H]3OC[C@H](Nc4nccc(C(F)(F)F)n4)[C@@H](O)[C@H]3O)C[C@H]1C(=O)N[C@@H](CC(=O)O)C(=O)N2 [Compound 38]	–	–	> 7.00	–	–	> 7.00	pEC50 ([1]; HepG2 cells, 100 nM AF488-labeled antibody, 1 hour at 4° C., class symbols, read-out: Ternary Complex EC50): > 7.00
O=C(CCOCC(COCCC(=O)NCCOCCOCCOCCOC[C@@]12CO[C@@H](O1)[C@H](Nc1nccc(C(F)(F)F)n1)[C@@H](O)[C@H]2O)NC(=O)COCCOCCOCCNc1ccc([N+](=O)[O-])cc1[N+](=O)[O-])NCCOCCOCCOCCOC[C@@]12CO[C@@H](O1)[C@H](Nc1nccc(C(F)(F)F)n1)[C@@H](O)[C@H]2O [Compound 31, 3,3′-((2-(2-(2-(2-(2-((2,4-dinitrophenyl)amino)ethoxy)ethoxy)ethoxy)acetamido)propane-1,3-diyl)bis(oxy))bis(N-(1-((1S,2R,3R,4R,5S)-2,3-dihydroxy-4-((4-(trifluoromethyl)pyrimidin-2-yl)amino)-6,8-dioxabicyclo[3.2.1]octan-1-yl)-2,5,8,11-tetraoxatridecan-13-yl)propanamide)]	–	–	> 7.00	< 100	< 100	–	–
O=C(CCOCC(COCCC(=O)NCCOCCOCCOCCOC[C@@]12CO[C@@H](O1)[C@H](Nc1nc(Cl)ns1)[C@@H](O)[C@H]2O)NC(=O)COCCOCCOCCNc1ccc([N+](=O)[O-])cc1[N+](=O)[O-])NCCOCCOCCOCCOC[C@@]12CO[C@@H](O1)[C@H](Nc1nc(Cl)ns1)[C@@H](O)[C@H]2O [Compound 30, 3,3′-((2-(2-(2-(2-(2-((2,4-dinitrophenyl)amino)ethoxy)ethoxy)ethoxy)acetamido)propane-1,3-diyl)bis(oxy))bis(N-(1-((1S,2R,3R,4R,5S)-4-((3-chloro-1,2,4-thiadiazol-5-yl)amino)-2,3-dihydroxy-6,8-dioxabicyclo[3.2.1]octan-1-yl)-2,5,8,11-tetraoxatridecan-13-yl)propanamide)]	–	–	> 7.00	< 100	< 100	–	–
CC(C)C[C@@H]1NC(=O)[C@H](Cc2c[nH]cn2)NC(=O)[C@H](Cc2c[nH]c3ccccc23)NC(=O)[C@H](C)NC(=O)[C@@H](NC(=O)[C@H](CC(=O)O)NC(=O)CCOCCOCCOCCOCCNC(=O)CCCc2cn(CCCCCC(=O)NC(COCCC(=O)NCCOCCOCCOCCOC[C@@H]3CC[C@@H](Nc4nccc(C(F)(F)F)n4)CO3)COCCC(=O)NCCOCCOCCOCCOC[C@@H]3CC[C@@H](Nc4nccc(C(F)(F)F)n4)CO3)nn2)CSSC[C@@H](C(=O)N[C@H](C(N)=O)[C@@H](C)O)NC(=O)[C@H](Cc2c[nH]c3ccccc23)NC(=O)[C@H](C(C)C)NC(=O)[C@H](CC(C)C)NC(=O)[C@H](CCC(=O)O)NC(=O)CNC1=O [Compound 87]	–	< 6.00	< 6.00	–	–	–	pEC50 ([1]; HepG2 cells, ternary complex formation, read-out: TCF EC50): < 6.00
CC(C)C[C@@H]1NC(=O)[C@H](Cc2c[nH]cn2)NC(=O)[C@H](Cc2c[nH]c3ccccc23)NC(=O)[C@H](C)NC(=O)[C@@H]2CSSC[C@H](NC(=O)[C@H](Cc3c[nH]c4ccccc34)NC(=O)[C@H](C(C)C)NC(=O)[C@H](CC(C)C)NC(=O)[C@H](CCC(=O)O)NC(=O)CNC1=O)C(=O)N[C@@H]([C@@H](C)O)C(=O)N1CCC[C@@H]1C(=O)N1C[C@@H](NC(=O)COCCOCCOCC(=O)NC(COCCC(=O)NCCOCCOCCOCCOC[C@H]3OC[C@H](Nc4cncc(C(F)(F)F)n4)[C@@H](O)[C@H]3O)COCCC(=O)NCCOCCOCCOCCOC[C@H]3OC[C@H](Nc4cncc(C(F)(F)F)n4)[C@@H](O)[C@H]3O)C[C@H]1C(=O)N[C@@H](CC(=O)O)C(=O)N2 [Compound 40]	> 7.00	–	–	–	–	> 7.00	–
CC(C)C[C@@H]1NC(=O)[C@H](Cc2c[nH]cn2)NC(=O)[C@H](Cc2c[nH]c3ccccc23)NC(=O)[C@H](C)NC(=O)[C@@H]2CSSC[C@H](NC(=O)[C@H](Cc3c[nH]c4ccccc34)NC(=O)[C@H](C(C)C)NC(=O)[C@H](CC(C)C)NC(=O)[C@H](CCC(=O)O)NC(=O)CNC1=O)C(=O)N[C@@H]([C@@H](C)O)C(=O)N1CCC[C@@H]1C(=O)N1C[C@@H](NC(=O)CNC(COCCC(=O)NCCOCCOCCOCCOC[C@H]3OC[C@H](Nc4nccc(C(F)(F)F)n4)[C@@H](O)[C@H]3O)COCCC(=O)NCCOCCOCCOCCOC[C@H]3OC[C@H](Nc4nccc(C(F)(F)F)n4)[C@@H](O)[C@H]3O)C[C@H]1C(=O)N[C@@H](CC(=O)O)C(=O)N2 [Compound 50]	> 7.00	–	–	–	–	> 7.00	–
CC(C)C[C@@H]1NC(=O)[C@H](Cc2c[nH]cn2)NC(=O)[C@H](Cc2c[nH]c3ccccc23)NC(=O)[C@H](C)NC(=O)[C@@H]2CSSC[C@H](NC(=O)[C@H](Cc3c[nH]c4ccccc34)NC(=O)[C@H](C(C)C)NC(=O)[C@H](CC(C)C)NC(=O)[C@H](CCC(=O)O)NC(=O)CNC1=O)C(=O)N[C@@H]([C@@H](C)O)C(=O)N1CCC[C@@H]1C(=O)N1C[C@@H](NC(=O)CCOCCOCCOCCOCCNC(=O)CCCc3cn(CCCCCC(=O)NC(COCCC(=O)NCCOCCOCCOCCO[C@@H]4O[C@H](CO)[C@H](O)[C@H](O)[C@H]4Nc4cncc(C(F)(F)F)n4)COCCC(=O)NCCOCCOCCOCCO[C@@H]4O[C@H](CO)[C@H](O)[C@H](O)[C@H]4Nc4cncc(C(F)(F)F)n4)nn3)C[C@H]1C(=O)N[C@@H](CC(=O)O)C(=O)N2 [Compound 82]	> 7.00	> 7.00	–	–	–	–	–
